Where a name gives a salt, the structure may show the parent alone.
Tests used:
PI3Kα = target: T1, PI3Kα (Homo sapiens, UniProt P42336); assay: PI3K enzyme assay of Example 7 ([γ-33P]ATP filter plate); assay type: biochemical
T1 construct: purchased Millipore (Bedford, Mass.)
Method: (§1) Materials: Lipid kinase substrate, phosphoinositol-4,5-bisphosphate (PIP2), are purchased from Echelon Biosciences (Salt Lake City, Utah). PI3K isoforms α, β, δ and γ are purchased from Millipore (Bedford, Mass.). ATP, MgCl2, DTT, EDTA, MOPS and CHAPS are purchased from Sigma-Aldrich (St. Louis, Mo.).
(§2) The kinase reaction are conducted in clear-bottom 96-well plate from Thermo Fisher Scientific in a final volume of 24 μL. Inhibitors are first diluted serially in DMSO and added to the plate wells before the addition of other reaction components. The final concentration of DMSO in the assay is 0.5%. The PI3K assays are carried out at room temperature in 20 mM MOPS, pH 6.7, 10 mM MgCl2, 5 mM DTT and CHAPS 0.03%. The reaction mixture is prepared containing 50 μM PIP2, kinase and varying concentration of inhibitors. Reactions are initiated by the addition of ATP containing 2.2 μCi [γ-^33P]ATP to a final concentration of 1000 μM. The final concentration of PI3K isoforms α, β, δ and γ in the assay were 1.3, 9.4, 2.9 and 10.8 nM, respectively. Reactions are incubated for 180 minutes and terminated by the addition of 100 μL of 1 M potassium phosphate pH 8.0, 30 mM EDTA quench buffer. A 100 μL aliquot of the reaction solution are then transferred to 96-well Millipore MultiScreen IP 0.45 μm PVDF filter plate (The filter plate is prewetted with 200 μL 100% ethanol, distilled water, and 1 M potassium phosphate pH 8.0, respectively). The filter plate is aspirated on a Millipore Manifold under vacuum and washed with 18×200 μL wash buffer containing 1 M potassium phosphate pH 8.0 and 1 mM ATP. After drying by aspiration and blotting, the plate is air dried in an incubator at 37° C. overnight. Packard TopCount adapter (Millipore) is then attached to the plate followed with addition of 120 μL Microscint 20 scintillation cocktail (Perkin Elmer) in each well. After the plate sealing, the radioactivity of the product is determined by scintillation counting on Topcount (Perkin-Elmer). IC50 determination is performed by fitting the curve of percent control activity versus the log of the inhibitor concentration using the GraphPad Prism 3.0 software.

PI3Kβ = target: T2, PI3Kβ (Homo sapiens, UniProt P42338); assay: as above; assay type: biochemical
T2 construct: purchased Millipore (Bedford, Mass.)
Method: as §1, §2

PI3Kγ = target: T3, PI3Kγ (Homo sapiens, UniProt P48736); assay: as above; assay type: biochemical
T3 construct: purchased Millipore (Bedford, Mass.)
Method: as §1, §2

PI3Kδ = target: T4, PI3Kδ (Homo sapiens, UniProt O00329); assay: as above; assay type: biochemical
T4 construct: purchased Millipore (Bedford, Mass.)
Method: as §1, §2

PI3Kδ (p110δ/p85α) = PI3Kδ (p110δ/p85α) (Homo sapiens, UniProt O00329); assay: PI3Kδ scintillation proximity assay (Example 8); assay type: biochemical; conditions: 20 μM ATP, 4 nM PI3Kδ
From the text: Lipid kinase substrate, D-myo-Phosphatidylinositol 4,5-bisphosphate (PtdIns(4,5)P2)D (+)-sn-1,2-di-O-octanoylglyceryl, 3-O-phospho linked (PIP2), CAS 204858-53-7, was purchased from Echelon Biosciences (Salt Lake City, Utah). PI3Kδ (p110δ/p85α) was purchased from Millipore (Bedford, Mass.). ATP, MgCl2, DTT, EDTA, MOPS and CHAPS were purchased from Sigma-Aldrich (St. Louis, Mo.). Wheat Germ Agglutinin (WGA) YSi SPA Scintillation Beads was purchased from GE healthcare life sciences (Piscataway, N.J.).
The kinase reaction was conducted in polystyrene 384-well matrix white plate from Thermo Fisher Scientific in a final volume of 25 μL. Inhibitors were first diluted serially in DMSO and added to the plate wells before the addition of other reaction components. The final concentration of DMSO in the assay was 0.5%. The PI3K assays were carried out at room temperature in 20 mM MOPS, pH 6.7, 10 mM MgCl2, 5 mM DTT and CHAPS 0.03%. […] ATP, 4 nM PI3Kδ. Reactions were incubated for 210 min and terminated by the addition of 40 μL SPA beads suspended in quench buffer: 150 mM potassium phosphate pH 8.0, 20% glycerol. 25 mM EDTA, 400 μM ATP. […] After the plate sealing, plates were shaken overnight at room temperature and centrifuged at 1800 rpm for 10 minutes, the radioactivity of the product was determined by scintillation counting on Topcount (Perkin-Elmer). […]

IC90 value in the dermis = assay: IC90 value in the dermis
Method: Based on initial studies it is believed that topical administration of a strength of 0.01% may result in mean plasma concentration of approximately 1 nM at steady state.

[1] = Free fraction by equilibrium dialysis, human plasma and homogenized human skin; assay type: in vitro ADME
Method: (§3) The concentration of Compound A was measured in the epidermis, dermis, and plasma 24 hours post application. Dermal concentrations in minipigs dosed with 1.0% w/w topical formulation were 8× higher compared with dermal concentrations in minipigs dosed with the 0.1% topical formulation. The epidermal concentration for 1.0% w/w topical formulation was 6× higher compared with the 0.1% w/w topical dose. The epidermal concentrations accounted for the combined drug levels in the stratum corneum and viable epidermis layers (i.e., skin samples were not tape stripped). Relatedly, the free fraction of Compound A in plasma and homogenized human skin was evaluated by equilibrium dialysis studies. The mean free fraction in human plasma and skin was […] respectively. In minipigs, the free fraction in plasma was measured at 3.1%.

[2] = Free fraction in plasma, minipig; assay type: in vitro ADME
Method: as §3

T1 sequence (P42336 whole entry): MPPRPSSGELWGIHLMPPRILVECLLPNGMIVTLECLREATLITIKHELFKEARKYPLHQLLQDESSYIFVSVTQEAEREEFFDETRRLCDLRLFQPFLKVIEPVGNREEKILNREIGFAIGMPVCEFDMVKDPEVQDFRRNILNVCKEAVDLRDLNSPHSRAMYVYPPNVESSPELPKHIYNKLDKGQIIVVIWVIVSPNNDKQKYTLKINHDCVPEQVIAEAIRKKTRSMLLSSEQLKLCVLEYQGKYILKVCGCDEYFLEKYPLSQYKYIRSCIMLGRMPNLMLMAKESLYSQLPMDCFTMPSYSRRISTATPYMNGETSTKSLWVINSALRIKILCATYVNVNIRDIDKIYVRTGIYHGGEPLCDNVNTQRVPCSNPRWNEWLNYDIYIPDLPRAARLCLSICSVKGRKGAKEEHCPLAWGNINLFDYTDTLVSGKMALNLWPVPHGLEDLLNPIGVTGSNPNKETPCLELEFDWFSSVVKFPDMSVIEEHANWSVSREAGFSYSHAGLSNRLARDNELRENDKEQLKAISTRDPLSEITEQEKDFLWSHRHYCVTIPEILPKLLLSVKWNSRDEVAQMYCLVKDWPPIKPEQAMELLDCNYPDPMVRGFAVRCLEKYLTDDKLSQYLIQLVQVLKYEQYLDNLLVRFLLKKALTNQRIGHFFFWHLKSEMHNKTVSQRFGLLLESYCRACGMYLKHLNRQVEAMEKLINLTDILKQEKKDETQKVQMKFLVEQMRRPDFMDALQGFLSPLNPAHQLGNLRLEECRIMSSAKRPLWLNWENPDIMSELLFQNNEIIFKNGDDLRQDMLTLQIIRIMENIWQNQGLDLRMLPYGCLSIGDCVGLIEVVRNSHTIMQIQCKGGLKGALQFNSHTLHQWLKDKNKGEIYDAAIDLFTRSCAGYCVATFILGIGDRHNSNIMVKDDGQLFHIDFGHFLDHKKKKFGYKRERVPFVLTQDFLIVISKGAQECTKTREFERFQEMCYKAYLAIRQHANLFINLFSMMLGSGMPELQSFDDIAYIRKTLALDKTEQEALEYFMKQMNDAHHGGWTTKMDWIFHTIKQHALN
T1 sequence (P27986 whole entry partner): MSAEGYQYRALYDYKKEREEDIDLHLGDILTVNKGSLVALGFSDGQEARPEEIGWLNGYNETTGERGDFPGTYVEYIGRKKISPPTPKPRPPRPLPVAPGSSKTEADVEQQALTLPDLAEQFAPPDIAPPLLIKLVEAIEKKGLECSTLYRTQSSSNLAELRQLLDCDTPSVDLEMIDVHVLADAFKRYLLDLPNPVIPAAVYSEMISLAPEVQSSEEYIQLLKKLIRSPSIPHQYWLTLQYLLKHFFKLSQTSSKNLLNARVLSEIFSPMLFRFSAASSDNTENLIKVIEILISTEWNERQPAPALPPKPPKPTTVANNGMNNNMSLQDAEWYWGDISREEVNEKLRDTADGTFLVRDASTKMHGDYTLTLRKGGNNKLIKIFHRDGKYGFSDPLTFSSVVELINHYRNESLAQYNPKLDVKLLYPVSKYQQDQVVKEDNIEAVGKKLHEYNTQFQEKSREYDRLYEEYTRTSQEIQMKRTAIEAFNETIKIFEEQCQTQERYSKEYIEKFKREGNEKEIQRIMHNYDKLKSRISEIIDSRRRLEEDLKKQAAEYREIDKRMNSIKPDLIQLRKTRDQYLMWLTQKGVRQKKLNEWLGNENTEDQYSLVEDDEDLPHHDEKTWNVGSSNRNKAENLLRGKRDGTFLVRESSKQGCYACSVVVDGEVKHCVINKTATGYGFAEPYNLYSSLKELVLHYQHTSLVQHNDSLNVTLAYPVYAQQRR
T2 sequence (P42338 whole entry): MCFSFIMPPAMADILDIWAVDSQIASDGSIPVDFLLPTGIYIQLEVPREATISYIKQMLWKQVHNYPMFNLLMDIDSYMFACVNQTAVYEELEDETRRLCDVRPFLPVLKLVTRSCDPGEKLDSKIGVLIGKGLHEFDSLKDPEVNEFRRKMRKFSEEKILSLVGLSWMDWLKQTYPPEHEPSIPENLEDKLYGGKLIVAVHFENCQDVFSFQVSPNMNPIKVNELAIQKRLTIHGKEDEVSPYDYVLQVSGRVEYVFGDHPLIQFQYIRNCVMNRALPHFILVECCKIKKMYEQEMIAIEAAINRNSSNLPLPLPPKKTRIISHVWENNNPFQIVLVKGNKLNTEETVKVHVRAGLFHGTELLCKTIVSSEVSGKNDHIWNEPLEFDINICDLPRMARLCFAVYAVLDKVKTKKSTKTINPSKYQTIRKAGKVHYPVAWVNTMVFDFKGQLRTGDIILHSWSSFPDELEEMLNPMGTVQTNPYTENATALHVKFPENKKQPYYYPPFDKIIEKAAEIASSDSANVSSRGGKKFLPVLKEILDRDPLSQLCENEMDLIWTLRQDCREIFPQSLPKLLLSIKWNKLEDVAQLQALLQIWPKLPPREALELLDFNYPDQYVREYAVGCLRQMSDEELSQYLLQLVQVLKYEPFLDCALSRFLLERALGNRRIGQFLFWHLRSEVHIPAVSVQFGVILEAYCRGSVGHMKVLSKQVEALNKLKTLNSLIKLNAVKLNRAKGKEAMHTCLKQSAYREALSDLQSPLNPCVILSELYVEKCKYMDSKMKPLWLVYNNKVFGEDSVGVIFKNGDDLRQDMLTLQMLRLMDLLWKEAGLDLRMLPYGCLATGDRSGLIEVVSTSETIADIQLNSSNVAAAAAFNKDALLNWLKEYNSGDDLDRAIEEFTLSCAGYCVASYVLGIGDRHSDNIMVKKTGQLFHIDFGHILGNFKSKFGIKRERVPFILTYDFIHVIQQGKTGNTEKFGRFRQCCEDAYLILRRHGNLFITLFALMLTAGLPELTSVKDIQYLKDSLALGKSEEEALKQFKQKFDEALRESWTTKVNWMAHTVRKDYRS
T2 sequence (P27986 whole entry partner): as the sequence (P27986 whole entry partner) above
Chain of PI3Kδ (p110δ/p85α) (O00329 whole entry): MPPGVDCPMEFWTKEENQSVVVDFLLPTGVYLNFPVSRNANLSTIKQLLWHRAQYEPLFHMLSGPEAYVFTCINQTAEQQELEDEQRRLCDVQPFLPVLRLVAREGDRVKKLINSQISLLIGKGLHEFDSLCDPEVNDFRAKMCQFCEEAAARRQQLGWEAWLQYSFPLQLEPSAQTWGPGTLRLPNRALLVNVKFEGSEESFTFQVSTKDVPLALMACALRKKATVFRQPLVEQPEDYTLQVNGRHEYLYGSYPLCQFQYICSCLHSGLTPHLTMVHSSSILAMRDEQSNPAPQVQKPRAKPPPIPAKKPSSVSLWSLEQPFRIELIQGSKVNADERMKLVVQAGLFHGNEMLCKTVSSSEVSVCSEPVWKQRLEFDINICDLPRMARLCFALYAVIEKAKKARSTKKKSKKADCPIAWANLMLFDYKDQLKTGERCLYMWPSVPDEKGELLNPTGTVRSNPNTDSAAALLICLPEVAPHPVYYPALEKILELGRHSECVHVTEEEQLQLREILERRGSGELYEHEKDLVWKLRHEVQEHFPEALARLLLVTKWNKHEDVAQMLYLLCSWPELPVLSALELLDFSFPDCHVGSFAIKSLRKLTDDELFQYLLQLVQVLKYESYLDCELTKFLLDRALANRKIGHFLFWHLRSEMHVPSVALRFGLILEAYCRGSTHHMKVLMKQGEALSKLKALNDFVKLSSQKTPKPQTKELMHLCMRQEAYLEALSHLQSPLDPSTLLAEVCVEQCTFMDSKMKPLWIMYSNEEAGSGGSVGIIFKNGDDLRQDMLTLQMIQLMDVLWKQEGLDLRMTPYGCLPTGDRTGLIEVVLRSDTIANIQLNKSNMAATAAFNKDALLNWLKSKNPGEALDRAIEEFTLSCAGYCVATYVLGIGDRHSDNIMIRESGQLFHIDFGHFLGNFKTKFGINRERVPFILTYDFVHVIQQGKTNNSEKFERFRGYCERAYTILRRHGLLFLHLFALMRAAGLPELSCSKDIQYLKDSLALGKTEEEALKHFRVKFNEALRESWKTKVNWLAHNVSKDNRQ
Chain of PI3Kδ (p110δ/p85α) (P27986 whole entry partner): as the sequence (P27986 whole entry partner) above
T4 sequence (O00329 whole entry): as the sequence (O00329 whole entry) above
T4 sequence (P27986 whole entry partner): as the sequence (P27986 whole entry partner) above

Compound	selectivity for PI3Kδ over PI3Kα (PI3Kα) [fold]	selectivity for PI3Kδ over PI3Kβ (PI3Kβ) [fold]	selectivity for PI3Kδ over PI3Kγ (PI3Kγ) [fold]	selectivity for PI3Kδ (in words) (PI3Kδ)	IC50 (PI3Kδ (p110δ/p85α)) [µM]	IC90 (IC90 value in the dermis) [µM]	fraction unbound ([1]; homogenized skin, read-out: Mean free fraction in homogenized human skin)	fraction unbound ([1]; plasma, read-out: Mean free fraction in human plasma)	fraction unbound [2]
CCOc1c([C@H](C)n2nc(C)c3c(N)ncnc32)cc(Cl)c(F)c1[C@@H]1CNC(=O)C1 [Compound A HCl, (R)-4-(3-((S)-1-(4-Amino-3-methyl-1H-pyrazolo[3,4-d]pyrimidin-1-yl)ethyl)-5-chloro-2-ethoxy-6-fluorophenyl)pyrrolidin-2-one Hydrochloric Acid Salt]	> 100	> 100	> 100	selective inhibitor for PI3Kδ					
CCOc1c([C@H](C)n2nc(C)c3c(N)ncnc32)cc(Cl)c(F)c1[C@@H]1CNC(=O)C1 [Compound A, (R)-4-(3-((S)-1-(4-amino-3-methyl-1H-pyrazolo[3,4-d]pyrimidin-1-yl)ethyl)-5-chloro-2-ethoxy-6-fluorophenyl)pyrrolidin-2-one]					< 0.01	~0.02	0.33	0.074	0.031

— US20230190755A1, “Topical formulations of PI3K-delta inhibitors” (Incyte Corporation, priority 2021, published 2023)
